Test results as given in patent US6046218A, “Pyridine derivative and medicament containing the same as an effective ingredient” (SS Pharmaceutical Co., Ltd., priority 1996, dated 2000).
Where a name gives a salt, the structure may show the parent alone.

Legend:
[1] = tested on: IgM production; test: Test 4 (comparison): inhibition of IgM production; format: in vivo, Balb/c mouse; conditions: 100 mg/kg orally once a day; for inhibition at 100 mg/kg: Mus musculus, po, Day 1 to Day 10, spleen cells, DNP-BSA 5 μg/ml, 24 hours, read-out: Inhibition rate of IgM production; for effects on the production of IgM: in words
Protocol: (§1) Test 4: Test on the inhibition of IgE production
(§2) To a Balb/c mouse, the DNP-labeled ascaris antigen (5 μg) and Alum (1 mg) were intraperitoneally administered on Day 1 and Day 6 to sensitize the mouse with the antibody. From Day 1 to Day 10, a medicament was orally administered at a dose of 100 mg/kg once a day. On Day 11, the mouse was subjected to splenectomy and the spleen so obtained was untangled into its cells. To 5×10^7 cells/ml of the spleen cells so obtained, DNP-BSA (5 μg/ml) was added, followed by incubation at 37° C. for 24 hours. After incubation, 100 μl of the supernatant were collected and subjected to the measurement an IgE measuring kit (Yamasa Co., Ltd.). In order to determine IgG1, IgG2a and IgM, the absorbance of the incubated supernatant was measured by the EIA method and provided for comparison. The inhibition rate of IgE production was calculated according to the below-described formula. Inhibition rates of the IgG1, IgG2a and IgM production were similarly calculated, respectively. [formula]

[2] = tested on: IgG2a production; test: Test 4 (comparison): inhibition of IgG2a production; format: in vivo, Balb/c mouse; conditions: 100 mg/kg orally once a day; for inhibition at 100 mg/kg: Mus musculus, po, Day 1 to Day 10, spleen cells, DNP-BSA 5 μg/ml, 24 hours, read-out: Inhibition rate of IgG2a production; for effects on the production of IgG2a: in words
Protocol: as §1, §2

[3] = tested on: IgE production; test: Test 4: inhibition of IgE production by spleen cells of orally treated sensitized mice; format: in vivo, Balb/c mouse; conditions: Mus musculus, po, 100 mg/kg orally once a day, Day 1 to Day 10, DNP-BSA 5 μg/ml, 24 hours, read-out: Inhibition rate of IgE production
Protocol: as §1, §2

[4] = tested on: IgG1 production; test: Test 4 (comparison): inhibition of IgG1 production; format: in vivo, Balb/c mouse; conditions: 100 mg/kg orally once a day; for inhibition at 100 mg/kg: Mus musculus, po, Day 1 to Day 10, spleen cells, DNP-BSA 5 μg/ml, 24 hours, read-out: Inhibition rate of IgG1 production; for effects on the production of IgG1: in words
Protocol: as §1, §2

[5] = tested on: IL-4 production; test: Test 2: inhibition of IL-4 production in human T-cell strain ATL-16T(-) stimulated with PMA (Bio Source EIA); format: cell-based; conditions: ATL-16T(-) 5×10^5 cells/0.5 ml/well, 20 nM PMA, 48 hours, read-out: Inhibition rate of IL-4 production; for inhibition at 10 µM: 10^-5 M; for inhibition at 1 µM: 10^-6 M; for inhibition at 0.1 µM: 10^-7 M; for inhibition at 0.01 µM: 10^-8 M
Protocol: Test 2: Test on the inhibition of IL-4 production
Into individual wells of a 48-well microplate, the human T-cell strain ATL-16T(-) was poured at a concentration of 5×10^5 cells/0.5 ml/well (n=3), followed by the addition of a stimulator (20 nM of PMA) and a medicament at the same time. The resulting mixture was incubated in 5% CO2 at 37° C. for 48 hours. After incubation, 50 μl of the supernatant were collected and subjected to measurement by a human IL-4 EIA kit (BIO SOURCE, INC.). The inhibition rate was calculated according to the following formula. [formula]

[6] = tested on: IL-5 production; test: Test 3: inhibition of IL-5 production in human PBMC stimulated with ConA; format: cell-based; conditions: 10^-6 M, 10 μg/ml ConA, 48 hours, read-out: Inhibition rate of IL-5 production
Summary of the method: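 Human PBMC from a normal volunteer, 1×10^6 cells/ml in AIM-V, stimulated with 10 μg/ml ConA alongside compound and incubated 48 h at 37 °C, 5% CO2. Supernatant IL-5 quantified by EIA; inhibition rate calculated from a formula.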

SMILES	inhibition at 100 mg/kg [1] [%]	effects on the production of IgM [1]	inhibition at 100 mg/kg [2] [%]	effects on the production of IgG2a [2]	inhibition at 100 mg/kg [3] [%]	inhibition at 100 mg/kg [4] [%]	effects on the production of IgG1 [4]	inhibition at 10 µM [5] [%]	inhibition at 1 µM [5] [%]	inhibition at 0.1 µM [5] [%]	inhibition at 0.01 µM [5] [%]	inhibition at 1 µM [6] [%]
CCOC(=O)CCCCCOc1cc(/C=C/C(=O)c2ccc(OC)cc2OC)ncc1OC [Ex. 92, Ethyl 6-[5-methoxy-2-(3-(2,4-dimethoxyphenyl)-3-oxo-1-propenyl)-4-pyridyloxy]hexanoate hydrochloride]	-8.3	No effects were observed	-6	No effects were observed	61.2	-4.3	No effects were observed	54.2	48.4	31	25.3	96.4
CCOC(=O)CCCCCOc1cc(/C=C/C(=O)c2ccccc2OC)ncc1OC [Ex. 94, Ethyl 6-[5-methoxy-2-(3-(2-methoxyphenyl)-3-oxo-1-propenyl)-4-pyridyloxy]hexanoate hydrochloride]	-1.6	No effects were observed	2.8	No effects were observed	63.4	7	No effects were observed	74.4	70.4	66.5	62.3	95.2
CCOC(=O)CCCCCCOc1cc(/C=C/C(=O)c2ccccc2OC)ncc1OC [Ex. 96, Ethyl 7-[5-methoxy-2-(3-(2-methoxyphenyl)-3-oxo-1-propenyl)-4-pyridyloxy]heptanoate hydrochloride]	9.6	No effects were observed	8.3	No effects were observed	63.2	5	No effects were observed	102	76.2	78.6	78.2	79.8
CCOC(=O)CCCCCCCOc1cc(/C=C/C(=O)c2ccccc2OC)ncc1OC [Ex. 98, Ethyl 8-[5-methoxy-2-(3-(2-methoxyphenyl)-3-oxo-1-propenyl)-4-pyridyloxy]octanoate hydrochloride]	-2.6	No effects were observed	-4.1	No effects were observed	50.1	5.4	No effects were observed	100	85.6	76.1	75.7	96.8
COc1cnc(/C=C/C(=O)c2ccccc2OC)cc1OCCCCCC(=O)O [Ex. 105, 6-[5-Methoxy-2-(3-(2-methoxyphenyl)-3-oxo-1-propenyl)-4-pyridyloxy]hexanoicacid]	0.5	No effects were observed	-1.8	No effects were observed	47.7	-4.2	No effects were observed	101	70.9	69.6	68.7	71
COc1cnc(/C=C/C(=O)C2CCCCC2)cc1OCCCC(=O)O [Ex. 106, 4-[2-(3-Cyclohexyl-3-oxo-1-propenyl)-5-methoxy-4-pyridyloxy]butanoic acid]	-7.3	–	2.1	–	28.8	-0.8	–	75.6	31.7	9.4	8.6	78.7
